Measurements published in PubChem BioAssay (NCI).
“And” between values parts separate entries of the source, which are not always exact repeats. Identical values can stand only once.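 Cells were grown in 96-well plates and exposed to each compound for 48 hours at five concentrations; endpoints were interpolated linearly between bracketing concentrations, or set to the highest concentration if not reached. The concentration for 50% growth inhibition is given as GI50. TGI marks complete inhibition of growth.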

Assays:
Assay in all cases: NCI tumour cell line growth inhibition, 48 h
[1] = test system: EKVX NSCLC
[2] = test system: DMS 273 small cell lung
[3] = test system: SF-268 CNS
[4] = test system: OVCAR-8 ovarian
[5] = test system: KM12 colon
[6] = test system: SK-OV-3 ovarian
[7] = test system: M19-MEL melanoma
[8] = test system: NCI-H226 lung
[9] = test system: SNB-19 CNS
[10] = test system: DMS 114 small cell lung
[11] = test system: UO-31 renal
[12] = test system: U251 CNS
[13] = test system: HOP-92 NSCLC
[14] = test system: HL-60(TB) leukemia
[15] = test system: SNB-78 CNS
[16] = test system: IGROV1 ovarian
[17] = test system: OVCAR-5 ovarian
[18] = test system: M14 melanoma
[19] = test system: NCI-H23 lung
[20] = test system: HT29 colon
[21] = test system: CCRF-CEM leukemia
[22] = test system: TK-10 renal
[23] = test system: SR leukemia
[24] = test system: SK-MEL-28 melanoma
[25] = test system: UACC-62 melanoma
[26] = test system: UACC-257 melanoma
[27] = test system: HCT-116 colon
[28] = test system: RXF 393 renal
[29] = test system: NCI-H460 lung
[30] = test system: NCI-H522 lung
[31] = test system: MOLT-4 leukemia
[32] = test system: A549 NSCLC
[33] = test system: A498 renal
[34] = test system: HOP-62 NSCLC
[35] = test system: MDA-MB-231 breast
[36] = test system: 786-0 renal
[37] = test system: ACHN renal
[38] = test system: T-47D breast
[39] = test system: MALME-3M melanoma
[40] = test system: OVCAR-3 ovarian
[41] = test system: MCF7 breast
[42] = test system: BT-549 breast
[43] = test system: SK-MEL-2 melanoma
[44] = test system: DU-145 prostate
[45] = test system: SN12C renal
[46] = test system: NCI/ADR-RES ovarian
[47] = test system: HCT-15 colon
[48] = test system: COLO 205 colon
[49] = test system: SF-295 CNS
[50] = test system: PC-3 prostate
[51] = test system: SF-539 CNS
[52] = test system: K-562 leukemia
[53] = test system: LOX IMVI melanoma
[54] = test system: MDA-N
[55] = test system: CAKI-1 renal
[56] = test system: SW-620 colon
[57] = test system: MDA-MB-435
[58] = test system: RPMI-8226 leukemia
[59] = test system: OVCAR-4 ovarian
[60] = test system: HS 578T breast
[61] = test system: SK-MEL-5 melanoma
[62] = test system: HCC-2998 colon
[63] = test system: SNB-75 CNS

Structure (SMILES): COc1ccc(OC)c2c(=O)c3ccccc3[nH]c12
- TGI [1]: > 100 µM
- TGI [2]: > 100 µM
- TGI [3]: > 100 µM
- TGI [4]: > 100 µM
- TGI [5]: > 100 µM
- TGI [6]: > 100 µM
- TGI [7]: > 100 µM
- TGI [8]: 94.1 µM
- TGI [9]: > 100 µM
- TGI [10]: > 100 µM
- TGI [11]: > 100 µM
- TGI [12]: > 100 µM
- TGI [13]: > 100 µM
- TGI [14]: > 100 µM
- TGI [15]: > 100 µM
- TGI [16]: > 100 µM
- TGI [17]: > 100 µM
- TGI [18]: > 100 µM
- TGI [19]: > 100 µM
- TGI [20]: > 100 µM
- TGI [21]: > 100 µM
- TGI [22]: > 100 µM
- TGI [23]: > 100 µM
- TGI [24]: > 100 µM
- TGI [25]: > 100 µM
- TGI [26]: > 100 µM
- TGI [27]: > 100 µM
- TGI [28]: > 100 µM
- TGI [29]: > 100 µM
- TGI [30]: > 100 µM
- TGI [31]: > 100 µM
- TGI [32]: > 100 µM
- TGI [33]: > 100 µM
- TGI [34]: > 100 µM

Structure (SMILES): C#CCOC(=O)C(=[N+]=[N-])C(=O)CC(C)C
- TGI [35]: > 10 µM
- TGI [1]: > 10 µM
- TGI [36]: > 10 µM
- TGI [3]: > 10 µM
- TGI [37]: > 10 µM
- TGI [38]: > 10 µM
- TGI [39]: > 10 µM
- TGI [40]: > 10 µM
- TGI [4]: > 10 µM
- TGI [41]: > 10 µM
- TGI [42]: > 10 µM
- TGI [5]: > 10 µM
- TGI [6]: > 10 µM
- TGI [8]: > 10 µM
- TGI [43]: > 10 µM
- TGI [9]: > 10 µM
- TGI [11]: > 10 µM
- TGI [12]: > 10 µM
- TGI [13]: > 10 µM
- TGI [14]: > 10 µM
- TGI [44]: > 10 µM
- TGI [45]: > 10 µM
- TGI [16]: > 10 µM
- TGI [17]: > 10 µM
- TGI [46]: > 10 µM
- TGI [18]: > 10 µM
- TGI [47]: > 10 µM
- TGI [48]: > 10 µM
- TGI [49]: > 10 µM
- TGI [50]: > 10 µM
- TGI [51]: > 10 µM
- TGI [52]: > 10 µM
- TGI [53]: > 10 µM
- TGI [19]: > 10 µM
- TGI [20]: > 10 µM
- TGI [21]: > 10 µM
- TGI [22]: > 10 µM
- TGI [23]: > 10 µM
- TGI [24]: > 10 µM
- TGI [25]: > 10 µM
- TGI [26]: > 10 µM
- TGI [54]: > 10 µM
- TGI [27]: > 10 µM
- TGI [55]: > 10 µM
- TGI [56]: > 10 µM
- TGI [28]: > 10 µM
- TGI [29]: > 10 µM
- TGI [57]: > 10 µM
- TGI [58]: > 10 µM
- TGI [31]: > 10 µM
- TGI [59]: > 10 µM
- TGI [60]: > 10 µM
- TGI [32]: > 10 µM
- TGI [33]: > 10 µM
- TGI [61]: > 10 µM
- TGI [62]: > 10 µM
- TGI [34]: > 10 µM

Structure (SMILES): Cc1ccc2nc(C(=O)O)c(=O)[nH]c2c1
- TGI [35]: > 100 µM
- TGI [1]: > 100 µM
- TGI [36]: > 100 µM
- TGI [3]: > 100 µM
- TGI [37]: > 100 µM
- TGI [38]: > 100 µM
- TGI [39]: > 100 µM
- TGI [40]: > 100 µM
- TGI [4]: > 100 µM
- TGI [41]: > 100 µM
- TGI [42]: > 100 µM
- TGI [5]: > 100 µM
- TGI [6]: > 100 µM
- TGI [8]: > 100 µM
- TGI [43]: > 100 µM
- TGI [9]: > 100 µM
- TGI [11]: > 100 µM
- TGI [12]: > 100 µM
- TGI [13]: > 100 µM
- TGI [14]: > 100 µM
- TGI [44]: > 100 µM
- TGI [45]: > 100 µM
- TGI [16]: > 100 µM
- TGI [17]: > 100 µM
- TGI [46]: > 100 µM
- TGI [18]: > 100 µM
- TGI [47]: > 100 µM
- TGI [48]: > 100 µM
- TGI [49]: > 100 µM
- TGI [50]: > 100 µM
- TGI [51]: > 100 µM
- TGI [52]: > 100 µM
- TGI [53]: > 100 µM
- TGI [19]: > 100 µM
- TGI [20]: > 100 µM
- TGI [21]: > 100 µM
- TGI [22]: > 100 µM
- TGI [23]: > 100 µM
- TGI [24]: > 100 µM
- TGI [25]: > 100 µM
- TGI [26]: > 100 µM
- TGI [54]: > 100 µM
- TGI [27]: > 100 µM
- TGI [55]: > 100 µM
- TGI [56]: > 100 µM
- TGI [28]: > 100 µM
- TGI [29]: > 100 µM
- TGI [57]: > 100 µM
- TGI [30]: > 100 µM
- TGI [58]: > 100 µM
- TGI [31]: > 100 µM
- TGI [59]: > 100 µM
- TGI [60]: > 100 µM
- TGI [32]: > 100 µM
- TGI [33]: > 100 µM
- TGI [61]: > 100 µM
- TGI [62]: > 100 µM
- TGI [34]: > 100 µM

Structure (SMILES): C=C(Cl)[C@@](Cl)(CBr)CC[C@@H](Br)C(C)(C)Cl
- GI50 [35]: 0.577 µM
- TGI [1]: 15.1 µM and 7 µM
- GI50 [36]: 0.0733 µM
- TGI [36]: 0.286 µM and 0.247 µM
- TGI [3]: 3.01 µM and 0.838 µM
- GI50 [37]: 0.184 µM
- TGI [37]: 0.562 µM and 0.47 µM
- GI50 [38]: 0.775 µM
- TGI [38]: 2.98 µM and 0.797 µM
- GI50 [63]: 1.35 µM
- TGI [39]: 42.9 µM
- TGI [40]: 2.87 µM and 1.35 µM
- GI50 [41]: 0.432 µM
- TGI [41]: 2.01 µM and 0.937 µM
- TGI [42]: 22.3 µM
- TGI [5]: 2.36 µM and 0.689 µM
- GI50 [6]: 8 µM
- TGI [6]: 22.2 µM and 26.3 µM
- TGI [8]: 31 µM and 50.8 µM
- GI50 [43]: 0.552 µM
- TGI [43]: 2.72 µM and 1.85 µM
- GI50 [9]: 0.358 µM
- TGI [9]: 1.54 µM and 1.52 µM
- GI50 [11]: 0.428 µM
- TGI [11]: 1.85 µM and 2.01 µM
- GI50 [12]: 0.971 µM
- TGI [13]: 0.807 µM
- GI50 [14]: 0.0686 µM
- TGI [14]: > 100 µM and 10.5 µM
- GI50 [44]: 0.213 µM
- TGI [44]: 1.18 µM and 1.82 µM
- TGI [45]: 17.3 µM
- GI50 [16]: 14.7 µM
- TGI [16]: 32.2 µM and 32.6 µM
- GI50 [17]: 2.45 µM
- TGI [17]: 7.39 µM and 3.22 µM
- GI50 [46]: 3.05 µM
- TGI [18]: 40.9 µM and 28.8 µM
- GI50 [47]: 0.866 µM
- TGI [47]: 4.99 µM and 1.97 µM
- GI50 [48]: 0.776 µM
- TGI [49]: 2.46 µM and 0.452 µM
- GI50 [50]: 0.28 µM
- TGI [50]: 1.42 µM and 1.29 µM
- GI50 [51]: 0.0282 µM
- TGI [51]: 0.325 µM
- GI50 [52]: 1.7 µM
- TGI [52]: > 100 µM and 23.5 µM
- TGI [53]: 39.4 µM and 34.3 µM
- GI50 [19]: 13.4 µM
- TGI [19]: 30.2 µM and 29.1 µM
- GI50 [20]: 1.28 µM
- TGI [20]: 4.48 µM and 0.635 µM
- GI50 [21]: 20.3 µM
- TGI [21]: > 100 µM and 53.6 µM
- GI50 [22]: 0.228 µM
- TGI [22]: 0.545 µM and 0.679 µM
- GI50 [23]: 23.1 µM
- TGI [23]: > 100 µM and 79.4 µM
- GI50 [25]: 4.53 µM
- TGI [25]: 24.5 µM and 3.84 µM
- TGI [26]: 6.2 µM and 1.83 µM
- GI50 [54]: 1.69 µM
- TGI [27]: 1.25 µM and 0.635 µM
- GI50 [55]: 1.22 µM
- TGI [55]: 4.9 µM and 1.06 µM
- GI50 [56]: 0.778 µM
- GI50 [28]: 0.346 µM
- TGI [28]: 2.37 µM and 0.488 µM
- GI50 [57]: 2.5 µM
- TGI [57]: 39.5 µM and 5.5 µM
- TGI [30]: 34.5 µM and 43.5 µM
- GI50 [58]: 0.0688 µM
- TGI [58]: 1.48 µM and 0.473 µM
- GI50 [31]: 17.5 µM
- TGI [31]: 58.4 µM and 63.8 µM
- GI50 [59]: 2.29 µM
- TGI [59]: 7.36 µM and 3.15 µM
- GI50 [60]: 0.208 µM
- TGI [60]: 0.741 µM and 2.1 µM
- GI50 [32]: 1.67 µM
- TGI [32]: 4.12 µM and 4.11 µM
- TGI [33]: 5.57 µM and 1.93 µM
- GI50 [61]: 19.5 µM
- TGI [61]: > 100 µM and 21.3 µM
- GI50 [62]: 1.27 µM
- TGI [62]: 3.12 µM and 1.65 µM
- TGI [34]: 0.606 µM and 0.304 µM
